# Entries after “also recorded” stand apart in the source; their conditions may differ.
# Experiments:
# Acute Lung Injury (ALI) = assay: Inhaled CBD in Acute Lung Injury (ALI)/ARDS murine model with Poly(I:C); assay type: in vivo
# Poly(I:C)-induced ARDS [1] = assay: Poly(I:C)-induced ARDS in mice, apelin modulation by CBD (Example 2); assay type: in vivo, C57Bl/6 mice; conditions: CBD 5 mg/kg intraperitoneal, 3 doses, after Poly(I:C)
# T cells = assay: CBD inhalers in healthy young and older subjects, T cells; assay type: in vivo; conditions: CBD inhaler, 20 mg of CBD for 120 min
# Poly(I:C)-induced ARDS [2] = assay type: in vivo, C57BL/6 mice; conditions: CBD 5 mg/kg intraperitoneal
# [3] = inhaled CBD compared to CBD injection
# [4] = inhaled CBD, Poly(I:C)-treated mice
smiles,measurement,setting,value
"C=C(C)[C@@H]1CCC(C)=C[C@H]1c1c(O)cc(CCCCC)cc1O [CBD, cannabidiol]",IL-6 production in lung tissue,Acute Lung Injury (ALI); [3],further down regulate IL-6 production
same,activated infiltrating leukocytes,Acute Lung Injury (ALI); [3],decreased activated infiltrating leukocytes
same,destruction of lung (H&E),Acute Lung Injury (ALI); [4],able to prevent further destruction of lung
same,frequencies of T cells (lymphopenia) in peripheral blood and lung tissue,Acute Lung Injury (ALI); [4],able to reinstate the frequencies of T cells
same,T cells in whole blood (flow cytometry),Poly(I:C)-induced ARDS [1]; blood,returned decreased T cells and increased neutrophils towards the normal level
same,apelin expression in blood (flow cytometry),Poly(I:C)-induced ARDS [1]; blood,normalized the expression level of apelin in the blood; also recorded: enhanced expression of apelin in the blood
same,neutrophils in whole blood (flow cytometry),Poly(I:C)-induced ARDS [1]; blood,returned decreased T cells and increased neutrophils towards the normal level
same,apelin expression in lung tissue (immunofluorescence),Poly(I:C)-induced ARDS [1]; lung,normalized the apelin expression in the lung tissues; also recorded: increased apelin expression towards control levels
same,"pathological features of lung (histology, Masson's trichrome)",Poly(I:C)-induced ARDS [1]; lung,completely or partially abolished
same,effects on T cells frequencies or functionality,T cells,no negative effects
same,expression of IL-6 in lung (immunohistochemistry),"Poly(I:C)-induced ARDS [2]; 3 doses, after Poly(I:C)",reduced the expression of IL-6
same,frequencies of neutrophils in the lung (immunohistochemistry),"Poly(I:C)-induced ARDS [2]; 3 doses, after Poly(I:C)",lowered the frequencies of neutrophils in the lung
same,inflammatory indices overall (flow cytometry of blood and lung),"Poly(I:C)-induced ARDS [2]; 3 doses, after Poly(I:C)",reversed all these inflammatory indices and partially re-established homeostasis
same,"lung structural damage and symptoms (inflammatory infiltrate, fibrosis, hypertrophy, pulmonary edema; H&E histology)","Poly(I:C)-induced ARDS [2]; 3 doses, after Poly(I:C)",improves lung structure and function; also recorded: totally or partially reversed and returned to the level and condition of the normal
same,"level of proinflammatory cytokines in blood (IL-6, IFNγ, TNFα)",Poly(I:C)-induced ARDS [2]; blood,reducing the number of neutrophils and monocytes as well as the level of proinflammatory cytokines significantly
same,number of neutrophils and monocytes in blood (flow cytometry),Poly(I:C)-induced ARDS [2]; blood,reducing the number of neutrophils and monocytes
same,lymphocyte frequencies in blood (flow cytometry),"Poly(I:C)-induced ARDS [2]; blood, p<0.01",enhanced the rate of lymphocyte frequencies markedly
same,number of infiltrating neutrophils and macrophages in lung (flow cytometry),Poly(I:C)-induced ARDS [2]; lung,downregulated the number of infiltrating neutrophils and macrophages markedly
same,level of cytokines in lung (flow cytometry),"Poly(I:C)-induced ARDS [2]; lung, p<0.05",reduced the level of cytokines significantly
